Tests used:
IpaB = conditions: in vivo
IpaC = conditions: in vivo

ovalbumin
Anti-IpaB Serum IgG (geomean endpoint titer) (IpaB): 90 ± 0
Anti-IpaC Serum IgG (geomean endpoint titer) (IpaC): 90 ± 0
